Broadly, the bioavailability is the share of a dose that reaches the circulation, judged against a reference dose that is usually intravenous. As usually defined, the AUC(0-t) is exposure summed from dosing to a finite time, without extrapolation to infinity. One may read the IC50 as the midpoint of a concentration-inhibition curve.

The source of these data is patent US11045455B2, “Azetidine derivative, preparation method therefor, and use thereof” (SICHUAN KELUN-BIOTECH BIOPHARMACEUTICAL CO., LTD., priority 2016, dated 2021).

Series [1] deals with Collagen-Induced Arthritis (CIA) Model in Rats. The experiment in a line: In vivo efficacy in collagen-induced arthritis (CIA) model in rats. On the set-up: species or system Lewis rats; Mean arthritis score: scale not given here. On the procedure: Experimental Example 4: In Vivo Efficacy in Collagen-Induced Arthritis (CIA) Model in Rats
A mixed emulsion of bovine type II collagen and incomplete Freund's adjuvant 1:1 was injected at the back and the tail tip (3 sites) in Lewis rats. After 14 days, the paw thickness and paw volume of the rats were measured, and the arthritis development was scored. The day before the administration was set as DO, the animals were grouped based on paw volume, and the test compounds (vehicle: 5% DMSO+5% solutol) were gavage administered once a day for two weeks. The paw thickness and paw volume of the rats were measured, and the arthritis development was scored.

Series [2] can be described thus: Pharmacokinetic study in Rhesus monkeys, gavage (PO) administration. The note with it: male, rhesus monkey, plasma, PO administration at 1 mg/kg. The class given is in vivo. On the procedure: To study the pharmacokinetic characteristics of test compounds, the test compounds were administrated by a gavage (PO) route to male Rhesus monkeys. The dosage for PO administration was 1 mg/kg. Blood was collected at various time points after the PO administration. Plasma samples were analyzed by LC-MS/MS after protein precipitation process with acetonitrile. Pharmacokinetic parameters were calculated with a non-compartmental model by using WinNonlin 6.3 software.

Series [3] can be described thus: Pharmacokinetic study in Rhesus monkeys, intravenous (IV) administration. The class given is in vivo. The note with it: male, rhesus monkey, plasma, IV administration at 0.5 mg/kg. The method, then: To study the pharmacokinetic characteristics of test compounds, the test compounds were administrated by an intravenous (IV) route to male Rhesus monkeys. The dosage for IV administration was 0.5 mg/kg. Blood was collected at various time points after the IV administration. Plasma samples were analyzed by LC-MS/MS after protein precipitation process with acetonitrile. Pharmacokinetic parameters were calculated with a non-compartmental model by using WinNonlin 6.3 software.

The nature of series [4]: Pharmacokinetic study in rats, gavage (PO) administration. The series is classed as in vivo. Conditions: male, SD, rat, plasma; for AUC(0-t): po, gavage administration at 5 mg/kg, 0-24 h. On the procedure:
(§1) Experimental Example 3: Pharmacokinetic Studies
(§2) To study the pharmacokinetic characteristics of test compounds, the test compounds were administrated by intravenous (IV) and gavage (PO) routes to male SD rats. The dosage for IV administration was 1 mg/kg, and that for PO administration was 0.5-5 mg/kg. The vehicle is 10% DMSO: 10% solutol: 80% physiological saline, or 5% DMSO: 5% solutol: 90% physiological saline, or 10% DMSO: 60% PEG: 30% physiological saline. Blood was collected at various time points after administration. Plasma samples were analyzed by LC-MS/MS after protein precipitation process with acetonitrile.

Series [5] in a line: Pharmacokinetic study in rats, intravenous (IV) administration. The note with it: male, SD, rat, plasma, IV administration at 1 mg/kg; for AUC(0-t): 0-24 h; for half-life: read-out: T½ (converted). The class given is in vivo. On the procedure: as §1, §2
Another series deals with hERG potassium channel (Homo sapiens (Human), UniProt Q12809). The experiment in a line: Predictor hERG Fluorescence Polarization Assay. The series is classed as binding. Conditions: tested at 3, 10 and 30 μM. The method, then:
Experimental Example 2: Safety Test
The effect of test compounds on hERG potassium channel were determined using Predictor™ hERG Fluorescence Polarization Assay at concentrations of 3, 10, and 30 μM.

For the next series, the target named is JAK3 (Homo sapiens (Human), UniProt P52333). The experiment in a line: JAK3 enzymatic inhibition assay (ADP-Glo luminescence). The series is classed as biochemical. The source says:
(§3) Experimental Example 1: JAK1, JAK2, JAK3 and TYK2 Enzymatic Inhibition Assay

A further series deals with CYP3A4 (Homo sapiens (Human), UniProt P08684). Kind of series: CYP450 enzyme test, P450-Glo screening system, CYP3A4. The series is classed as in vitro ADME. An excerpt:
(§4) CYP450 is the most important enzymatic system in drug metabolism. The enzymes involved in the metabolism interact with a drug, and mainly include CYP1A2, CYP2D6 and CYP3A4. In the CYP450 enzyme test, P450-Glo™ CYP1A2 screening system was employed to determine the inhibitory activity of compounds on CYP1A2 and CYP3A4. The Vivid® CYP2D6 Cyan screening kit was employed to determine the inhibitory activity of test compounds on CYP2D6.

The target in the next series is TYK2 (Homo sapiens (Human), UniProt P29597). The experiment in a line: TYK2 enzymatic inhibition assay (LanthaScreen TR-FRET). The series is classed as biochemical. The method, then:
as §3
As for the TYK2 enzyme, Tb-anti-pSTAT1 was added, and incubation at room temperature was performed.
(In general: In TR-FRET formats the signal depends on donor and acceptor labels being close together.)

A further series addresses CYP1A2 (Homo sapiens (Human), UniProt P05177). Kind of series: CYP450 enzyme test, P450-Glo screening system, CYP1A2. The class given is in vitro ADME.
From the text: as §4

A further series has as its target CYP2D6 (Homo sapiens (Human), UniProt P10635). Kind of series: CYP450 enzyme test, Vivid CYP2D6 Cyan screening kit. The class given is in vitro ADME.
From the text: as §4

Another series concerns the target JAK2 (Homo sapiens (Human), UniProt O60674). Kind of series: JAK2 enzymatic inhibition assay (ADP-Glo luminescence). The class given is biochemical. Background: In ADP-Glo the light output rises with the ADP produced.
The next series concerns the target JAK1 (Homo sapiens (Human), UniProt P23458). The experiment in a line: JAK1 enzymatic inhibition assay (ADP-Glo luminescence). The series is classed as biochemical.
Setting [6] is: D0 (day before administration), 10 mg/kg group.
The mark [7] stands for this setting: D11, 10 mg/kg gavage once a day.
Where [8] appears, read: D15, 10 mg/kg gavage once a day.

Molecules are shown by their SMILES. Read-outs that look alike come from different tables or passages of the source. Where only a bound is given, the exact number is not on record here.

JAK3, sequence (P52333 whole entry): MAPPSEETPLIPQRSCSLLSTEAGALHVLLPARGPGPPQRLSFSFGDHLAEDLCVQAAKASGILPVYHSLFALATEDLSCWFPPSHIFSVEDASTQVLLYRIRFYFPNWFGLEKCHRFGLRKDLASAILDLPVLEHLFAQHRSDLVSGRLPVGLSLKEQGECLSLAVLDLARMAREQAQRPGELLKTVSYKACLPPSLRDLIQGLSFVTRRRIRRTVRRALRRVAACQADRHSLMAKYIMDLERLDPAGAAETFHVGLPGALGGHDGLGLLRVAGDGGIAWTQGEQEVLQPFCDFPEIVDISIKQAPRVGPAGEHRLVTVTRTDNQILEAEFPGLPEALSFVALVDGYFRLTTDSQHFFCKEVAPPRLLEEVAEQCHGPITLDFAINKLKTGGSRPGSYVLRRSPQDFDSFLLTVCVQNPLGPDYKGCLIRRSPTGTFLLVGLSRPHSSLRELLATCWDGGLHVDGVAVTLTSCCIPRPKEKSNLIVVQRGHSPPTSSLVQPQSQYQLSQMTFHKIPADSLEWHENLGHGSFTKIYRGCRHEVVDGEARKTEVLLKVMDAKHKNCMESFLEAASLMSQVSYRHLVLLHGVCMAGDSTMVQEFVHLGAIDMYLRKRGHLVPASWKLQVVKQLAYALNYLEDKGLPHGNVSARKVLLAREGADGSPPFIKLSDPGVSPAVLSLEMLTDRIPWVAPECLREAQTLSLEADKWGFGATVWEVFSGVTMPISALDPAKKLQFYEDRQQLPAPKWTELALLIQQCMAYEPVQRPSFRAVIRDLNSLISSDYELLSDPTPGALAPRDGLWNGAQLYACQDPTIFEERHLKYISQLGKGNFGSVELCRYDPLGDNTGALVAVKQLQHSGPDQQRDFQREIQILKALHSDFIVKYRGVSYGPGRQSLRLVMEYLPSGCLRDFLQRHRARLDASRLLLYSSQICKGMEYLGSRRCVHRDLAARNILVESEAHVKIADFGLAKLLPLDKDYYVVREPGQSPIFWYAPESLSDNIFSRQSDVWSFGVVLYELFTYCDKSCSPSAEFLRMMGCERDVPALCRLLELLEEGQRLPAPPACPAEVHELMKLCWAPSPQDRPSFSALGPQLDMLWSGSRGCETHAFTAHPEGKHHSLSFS
CYP1A2, sequence (P05177 whole entry): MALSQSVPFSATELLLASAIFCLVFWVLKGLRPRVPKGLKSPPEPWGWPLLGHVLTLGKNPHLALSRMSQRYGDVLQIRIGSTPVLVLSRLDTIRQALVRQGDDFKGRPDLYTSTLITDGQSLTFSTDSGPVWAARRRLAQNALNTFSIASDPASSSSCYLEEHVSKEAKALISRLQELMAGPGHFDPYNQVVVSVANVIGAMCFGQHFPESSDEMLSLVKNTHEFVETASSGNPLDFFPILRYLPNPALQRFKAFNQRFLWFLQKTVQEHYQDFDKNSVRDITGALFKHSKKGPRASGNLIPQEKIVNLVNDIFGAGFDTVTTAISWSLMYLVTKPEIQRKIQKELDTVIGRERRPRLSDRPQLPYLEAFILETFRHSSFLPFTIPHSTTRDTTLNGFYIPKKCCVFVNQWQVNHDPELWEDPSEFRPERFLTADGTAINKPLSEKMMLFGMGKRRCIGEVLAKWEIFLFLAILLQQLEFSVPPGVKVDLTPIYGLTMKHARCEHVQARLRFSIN
JAK1, sequence (P23458 whole entry): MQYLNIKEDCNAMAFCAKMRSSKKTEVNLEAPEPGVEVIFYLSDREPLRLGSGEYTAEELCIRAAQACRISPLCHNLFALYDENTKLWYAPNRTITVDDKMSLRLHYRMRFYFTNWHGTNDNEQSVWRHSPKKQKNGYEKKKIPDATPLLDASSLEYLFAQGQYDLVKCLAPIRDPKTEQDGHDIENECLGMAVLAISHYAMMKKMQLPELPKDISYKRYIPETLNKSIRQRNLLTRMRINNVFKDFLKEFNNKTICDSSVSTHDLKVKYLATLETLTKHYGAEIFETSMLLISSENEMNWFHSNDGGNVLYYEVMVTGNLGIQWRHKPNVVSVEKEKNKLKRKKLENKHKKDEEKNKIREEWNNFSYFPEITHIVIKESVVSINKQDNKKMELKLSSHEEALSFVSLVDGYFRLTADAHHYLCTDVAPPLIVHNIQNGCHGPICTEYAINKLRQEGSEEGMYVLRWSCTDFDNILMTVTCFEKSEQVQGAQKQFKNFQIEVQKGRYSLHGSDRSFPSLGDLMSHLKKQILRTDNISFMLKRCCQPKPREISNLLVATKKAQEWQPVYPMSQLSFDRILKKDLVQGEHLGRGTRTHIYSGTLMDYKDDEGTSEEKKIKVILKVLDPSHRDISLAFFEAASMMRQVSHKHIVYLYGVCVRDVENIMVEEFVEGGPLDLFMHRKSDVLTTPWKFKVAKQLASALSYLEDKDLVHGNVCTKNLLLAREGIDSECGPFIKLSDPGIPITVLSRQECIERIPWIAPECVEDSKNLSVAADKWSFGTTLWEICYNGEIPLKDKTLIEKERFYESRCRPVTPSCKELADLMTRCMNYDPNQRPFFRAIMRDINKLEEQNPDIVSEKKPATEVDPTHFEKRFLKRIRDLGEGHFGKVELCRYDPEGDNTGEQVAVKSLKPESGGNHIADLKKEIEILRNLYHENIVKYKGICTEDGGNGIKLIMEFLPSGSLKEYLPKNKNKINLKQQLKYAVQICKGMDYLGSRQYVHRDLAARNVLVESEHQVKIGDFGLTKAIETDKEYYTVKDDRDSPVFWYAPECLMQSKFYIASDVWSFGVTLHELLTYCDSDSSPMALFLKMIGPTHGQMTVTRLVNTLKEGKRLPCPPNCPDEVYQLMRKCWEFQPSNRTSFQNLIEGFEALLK
hERG potassium channel, sequence (Q12809 whole entry): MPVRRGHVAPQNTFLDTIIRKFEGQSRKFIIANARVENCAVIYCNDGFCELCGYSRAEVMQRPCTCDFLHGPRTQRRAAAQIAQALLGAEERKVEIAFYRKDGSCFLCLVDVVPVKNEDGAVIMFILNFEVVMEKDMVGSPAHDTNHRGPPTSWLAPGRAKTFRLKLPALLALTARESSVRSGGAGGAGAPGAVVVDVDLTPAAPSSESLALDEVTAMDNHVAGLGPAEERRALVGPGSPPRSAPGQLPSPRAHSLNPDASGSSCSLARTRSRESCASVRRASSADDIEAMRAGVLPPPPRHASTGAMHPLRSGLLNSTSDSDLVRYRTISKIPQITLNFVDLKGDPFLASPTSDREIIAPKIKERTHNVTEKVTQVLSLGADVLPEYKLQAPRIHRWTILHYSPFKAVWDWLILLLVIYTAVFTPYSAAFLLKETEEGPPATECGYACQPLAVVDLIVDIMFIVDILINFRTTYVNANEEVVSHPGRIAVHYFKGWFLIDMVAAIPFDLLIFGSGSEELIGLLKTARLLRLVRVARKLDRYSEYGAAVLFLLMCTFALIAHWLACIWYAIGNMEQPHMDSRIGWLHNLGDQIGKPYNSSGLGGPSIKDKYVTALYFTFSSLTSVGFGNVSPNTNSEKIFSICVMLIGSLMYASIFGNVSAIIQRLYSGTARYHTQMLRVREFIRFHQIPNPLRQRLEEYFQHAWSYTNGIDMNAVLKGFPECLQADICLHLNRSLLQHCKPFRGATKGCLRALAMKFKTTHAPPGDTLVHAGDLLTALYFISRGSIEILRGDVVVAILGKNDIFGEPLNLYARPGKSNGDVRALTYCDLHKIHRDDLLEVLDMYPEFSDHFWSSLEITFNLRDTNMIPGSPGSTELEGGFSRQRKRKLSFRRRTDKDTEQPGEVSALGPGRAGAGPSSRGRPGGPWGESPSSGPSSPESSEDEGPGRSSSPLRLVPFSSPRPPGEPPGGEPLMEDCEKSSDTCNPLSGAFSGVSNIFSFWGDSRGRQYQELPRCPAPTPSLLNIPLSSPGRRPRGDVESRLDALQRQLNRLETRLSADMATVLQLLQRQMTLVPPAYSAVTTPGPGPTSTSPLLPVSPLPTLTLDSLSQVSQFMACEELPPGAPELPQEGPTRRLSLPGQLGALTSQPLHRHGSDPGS
CYP3A4, sequence (P08684 whole entry): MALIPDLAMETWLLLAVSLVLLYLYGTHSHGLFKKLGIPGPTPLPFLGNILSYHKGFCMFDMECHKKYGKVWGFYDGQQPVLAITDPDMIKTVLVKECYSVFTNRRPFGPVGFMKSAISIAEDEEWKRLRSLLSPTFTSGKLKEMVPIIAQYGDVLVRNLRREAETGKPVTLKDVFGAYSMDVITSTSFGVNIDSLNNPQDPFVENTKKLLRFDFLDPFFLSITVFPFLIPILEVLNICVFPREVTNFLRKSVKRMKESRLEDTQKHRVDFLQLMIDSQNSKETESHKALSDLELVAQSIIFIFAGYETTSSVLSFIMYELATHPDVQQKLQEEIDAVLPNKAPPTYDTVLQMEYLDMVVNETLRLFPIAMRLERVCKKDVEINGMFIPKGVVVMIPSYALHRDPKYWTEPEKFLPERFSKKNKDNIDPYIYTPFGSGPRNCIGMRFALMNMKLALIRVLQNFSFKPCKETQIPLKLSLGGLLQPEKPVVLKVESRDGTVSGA
CYP2D6, sequence (P10635 whole entry): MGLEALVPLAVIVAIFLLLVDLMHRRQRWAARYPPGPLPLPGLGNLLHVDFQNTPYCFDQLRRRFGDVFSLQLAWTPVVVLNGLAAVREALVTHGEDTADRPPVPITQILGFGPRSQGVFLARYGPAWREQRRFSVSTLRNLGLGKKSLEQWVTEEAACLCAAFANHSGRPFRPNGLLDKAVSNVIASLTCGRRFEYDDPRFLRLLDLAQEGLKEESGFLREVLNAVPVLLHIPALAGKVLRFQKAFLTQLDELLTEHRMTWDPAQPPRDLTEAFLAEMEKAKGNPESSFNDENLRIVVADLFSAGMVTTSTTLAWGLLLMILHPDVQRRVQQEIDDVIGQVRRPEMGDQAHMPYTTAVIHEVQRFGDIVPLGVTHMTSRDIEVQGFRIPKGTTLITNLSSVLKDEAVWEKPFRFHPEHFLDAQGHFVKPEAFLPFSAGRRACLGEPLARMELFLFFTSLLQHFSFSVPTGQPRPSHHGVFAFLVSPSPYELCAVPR
Protocol for JAK1: (§5) Test Materials • JAK1, JAK2, JAK3 and TYK2 enzymes were purchased from Life Technologies; and substrate GFP-STAT1 was purchased from Life Technologies.
(§6) Test compounds, enzymes, the substrate and ATP were diluted to the desired concentrations with the assay buffer (40 mM Tris-HCl, pH 7.4, 20 mM MgCl2, 0.1% BSA). The former three were added into a multiple well plate, and incubated at room temperature after being mixed homogeneously. ATP was added to initiate the kinase reaction, and incubation at room temperature was performed. ADP-Glo was added, and incubation at room temperature was performed. The kinase detector reagent was then added, and incubation at room temperature was performed. The luminescence intensity of each test group was detected, and the half maximal inhibitory concentration (IC50) value was calculated.
Protocol for JAK2: as §5, §6

Turning to `CCS(=O)(=O)N1CC(CC#N)(n2cc(-c3ncnc4[nH]ccc34)cn2)C1` [Baricitinib, reference compound], the Mean arthritis score turned out to be 3.00 in [1] (setting [6]); 2.25 in series [1] (D4, 10 mg/kg gavage once a day); 1.38 in series [1] (D7, 10 mg/kg gavage once a day); 1.75 in series [1] (setting [7]); 1.88 in series [1] (setting [8]). For the same compound, the “Mean paw thickness (mm)” value in series [1] (setting [6]) came out at 7.17 mm; in [1] (D4, 10 mg/kg gavage once a day), 6.67 mm; in [1] (D7, 10 mg/kg gavage once a day), 6.47 mm; in [1] (setting [7]) it was 6.36 mm; in [1] (setting [8]), 6.21 mm. For the same compound, the “Mean paw volume” value in [1] (setting [6]) was found to be 1.71 mL; in series [1] (D4, 10 mg/kg gavage once a day), 1.55 mL; in series [1] (D7, 10 mg/kg gavage once a day), 1.47 mL; in series [1] (setting [7]) it was 1.48 mL; in [1] (setting [8]), 1.59 mL. For the same compound, the bioavailability is 26.3% in [2] and 55% in series [4] (PO administration at 0.5-5 mg/kg, read-out: bioavailability (F %)). For the same compound, the values for the AUC(0-t) in series [2] (0-24 h), in [4] and in series [5] were 994 ng·h/mL, 3050 ng·h/mL and 505 ng·h/mL, respectively. Besides, the half-life was 1.96 h in series [2] (read-out: T½ (converted)); 1.38 h in [3]; 1.58 h in [4] (PO administration at 0.5-5 mg/kg, read-out: half-life (T1/2) (converted)); 0.946 h in series [5].
In the case of `CCS(=O)(=O)N1CC(CC#N)(n2cc(-c3c(C#N)cnc4[nH]ccc34)cn2)C1` [Compound 5, 4-(1-(3-(cyanomethyl)-1-(ethylsulfonyl)azetidin-3-yl)-1H-pyrazol-4-yl)-1H-pyrrolo[2,3-b]pyridine-5-carbonitrile], the IC50 was above 30000 nM on hERG potassium channel; 33.8 nM on JAK3; above 10 µM at CYP3A4; 27 nM against TYK2; above 10 µM at CYP1A2 (human); above 10 µM at CYP2D6. The IC50 on JAK2 is 1.49 nM. Besides, the values for the AUC(0-t) in [4] and in series [5] were 3150 ng·h/mL and 834 ng·h/mL, respectively. Also, the half-life in series [5] is 0.997 h.
As to `CS(=O)(=O)N1CC(CC#N)(n2cc(-c3ccnc4[nH]ccc34)cn2)C1` [Compound 19, 2-(3-(4-(1H-pyrrolo[2,3-b]pyridin-4-yl)-1H-pyrazol-1-yl)-1-(methylsulfonyl)azetidin-3-yl)acetonitrile], the half-inhibitory concentration (IC50) was above 30000 nM on hERG potassium channel; 10.3 nM against JAK3; above 10 µM against CYP3A4; above 10 µM at CYP1A2 (human); above 10 µM at CYP2D6; 0.69 nM against JAK1. Besides, the exposure AUC(0-t) in series [4] was determined as 5030 ng·h/mL; in series [5], 1390 ng·h/mL. Also, the half-life in series [5] is 7.1 h.
With `CC(C)CS(=O)(=O)N1CC(CC#N)(n2cc(-c3ccnc4[nH]ccc34)cn2)C1` [Compound 25, 2-(3-(4-(1H-pyrrolo[2,3-b]pyridin-4-yl)-1H-pyrazol-1-yl)-1-(isobutylsulfonyl)azetidin-3-yl)acetonitrile], the IC50 on hERG potassium channel is above 30000 nM; against JAK3, above 30 nM; on CYP3A4, above 10 µM; at TYK2, above 30 nM; on CYP1A2 (read-out: IC50 (μM) CYP1A2), above 10 µM; against CYP2D6 it was above 10 µM. In addition, the IC50 at JAK1 is 2.29 nM; on JAK2, 0.83 nM.
As to `N#CCC1(n2cc(-c3ccnc4[nH]ccc34)cn2)CN(S(=O)(=O)CCC(F)(F)F)C1` [Compound 30, 2-(3-(4-(1H-pyrrolo[2,3-b]pyridin-4-yl)-1H-pyrazol-1-yl)-1-((3,3,3-trifluoropropyl)sulfonyl)azetidin-3-yl)acetonitrile], the concentration for half-maximal inhibition (IC50) at hERG potassium channel was above 30000 nM; at JAK3, 36.5 nM; against TYK2 it was 58.2 nM; against JAK1 it was 2.22 nM; at JAK2, 2.16 nM. Further, the exposure AUC(0-t) in [4] is 32200 ng·h/mL; in series [5], 3170 ng·h/mL. Also, the half-life in [5] is 1.5 h.
As to `CCS(=O)(=O)N1CC(CC#N)(n2cc(-c3ncnc4[nH]ccc34)cc2C#N)C1` [Compound 39, 1-(3-(cyanomethyl)-1-(ethylsulfonyl)azetidin-3-yl)-4-(7H-pyrrolo[2,3-d]pyrimidin-4-yl)-1H-pyrrole-2-carbonitrile], the IC50 is above 30000 nM at hERG potassium channel; 10 to 30 nM against JAK3; above 10 µM against CYP3A4; above 10 µM at CYP1A2 (human); above 10 µM at CYP2D6; 0.69 nM against JAK2. Besides, the half-life in series [5] was 1.67 h.
For `CC(C)S(=O)(=O)N1CC(CC#N)(n2cc(-c3c(C#N)cnc4[nH]ccc34)cn2)C1` [Compound 43, 4-(1-(3-(cyanomethyl)-1-(isopropylsulfonyl)azetidin-3-yl)-1H-pyrazol-4-yl)-1H-pyrrolo[2,3-b]pyridine-5-carbonitrile], the 50% inhibitory concentration (IC50) at hERG potassium channel was above 30000 nM; on JAK3, 10 to 30 nM; at CYP3A4, above 10 µM; against TYK2, above 30 nM; at CYP1A2 (read-out: IC50 (μM) CYP1A2), above 10 µM; against CYP2D6, above 10 µM. The figures for the IC50 at JAK1 and against JAK2 were 0.55 nM and 2.54 nM, respectively.
As to `CCS(=O)(=O)N1CC(CC#N)(n2cc(-c3ccnc4[nH]ccc34)c(Cl)n2)C1` [Compound 48, 2-(3-(3-chloro-4-(1H-pyrrolo[2,3-b]pyridin-4-yl)-1H-pyrazol-1-yl)-1-(ethylsulfonyl)azetidin-3-yl)acetonitrile], the IC50 at hERG potassium channel was above 30000 nM; at CYP3A4, above 10 µM; at CYP1A2 (read-out: IC50 (μM) CYP1A2) it was above 10 µM; against CYP2D6, above 10 µM; on JAK1 it was 5.66 nM; against JAK2 it was 1.4 nM.
Take `CCS(=O)(=O)N1CC(CC#N)(n2cc(-c3c(Cl)cnc4[nH]ccc34)cn2)C1` [Compound 50, 2-(3-(4-(5-chloro-1H-pyrrolo[2,3-b]pyridin-4-yl)-1H-pyrazol-1-yl)-1-(ethylsulfonyl)azetidin-3-yl)acetonitrile]: the 50% inhibitory concentration (IC50) was above 30000 nM on hERG potassium channel; above 10 µM against CYP3A4; above 10 µM at CYP1A2 (read-out: IC50 (μM) CYP1A2); above 10 µM against CYP2D6; 0.67 nM against JAK2.
Regarding `CCS(=O)(=O)N1CC(CC#N)(n2cc(-c3c(F)cnc4[nH]ccc34)cn2)C1` [Compound 52, 2-(1-(ethylsulfonyl)-3-(4-(5-fluoro-1H-pyrrolo[2,3-b]pyridin-4-yl)-1H-pyrazol-1-yl)azetidin-3-yl)acetonitrile], the IC50 was above 30000 nM on hERG potassium channel; above 10 µM on CYP3A4; above 10 µM on CYP1A2 (read-out: IC50 (μM) CYP1A2); above 10 µM on CYP2D6; 0.4 nM against JAK2.
